From paper PMC11887051, “Discovery of ONO-2920632 (VU6011887): A Highly Selective and CNS Penetrant TREK-2 (TWIK-Related K+ Channel 2) Preferring Activator In Vivo Tool Compound” (ACS Chemical Neuroscience, 2025)

Key:
[1] = test system: Calcium Channel L-Type, Dihydropyridine; experiment: Eurofins Lead Profiling radioligand binding; set-up: species or system Rat; conditions: title: 30 μM
rat PO PK study = type: in vivo; conditions: male, Sprague-Dawley, 3 mg/kg PO
Protocol: Plasma and brain tissue samples originating from in vivo studies were analyzed by electrospray ionization using an AB Sciex Q-TRAP 5500 (Foster City, CA) that was coupled to a Shimadzu LC-20AD pump (Columbia, MD) and a Leap Technologies CTC PAL auto-sampler (Carrboro, NC). Analytes were separated by gradient elution using a C18 column (3 x 50 mm, 3 mm; Fortis Technologies Ltd, Cheshire, UK) that was thermostated at 40 °C. HPLC mobile phase A was 0.1% formic acid in water (pH unadjusted); mobile phase B was 0.1% formic acid in acetonitrile (pH […]
min, with an isocratic hold for 0.5 min, before transitioning to 10% B over 0.05 min. The column was re-equilibrated (1 min) before the next sample injection. The total run time was 2.55 min, and the HPLC flow rate was 0.5 ml/min. The source temperature was set at 500 °C, and mass spectral analyses were performed using a Turbo-Ion spray source in positive ionization mode (5.0-kV spray voltage) and using multiple-reaction monitoring of transitions specific for the analytes. All data were analyzed using AB Sciex Analyst 1.5.1 software.
Brain plasma concentration ratio (Kp) was calculated by dividing brain concentration by plasma concentration for each animal. Unbound brain to unbound plasma concentration ratio (Kp,uu) is calculated using the following formula: Kp,uu = (Brain ng/g x brain fu)/(plasma ng/ml x plasma fu).
For determination of the plasma concentration-time profile, compounds were formulated in methyl cellulose and administered as a 3 mg/kg PO dose to male C57BL/6 mouse or SD rat (n = 2). For the same determination, compounds were formulated in HP-β-CD and administered as a 0.1 mg/kg IV dose to male beagle dog (n = 2).
Plasma samples originating from in vivo studies were analyzed by electrospray ionization using a Q-TRAP 5500 (AB Sciex) that was coupled to a Prominence UFLC XR (Shimadzu Corporation).
Analytes were separated by gradient elution using a Shim-pack XR-ODS II (2 x 75 mm, 2.2μm, Shimadzu Corporation) that was thermostated at 40 °C. HPLC mobile phase A was 5 mM ammonium acetate containing 0.2% formic acid in water (pH unadjusted); mobile phase B was […]
hold for 1.5 min, before transitioning to 10% B over 0.1 min. The column was re-equilibrated (0.9 min) before the next sample injection. The total run time was 4.0 min, and the HPLC flow rate was 0.5 ml/min. The source temperature was set at 600 °C, and mass spectral analyses were performed using a Turbo-Ion spray source in positive ionization mode and using multiple-reaction

## O=C(NCc1ccc(OC(F)(F)F)cc1F)c1ccc2ncnn2c1 [Compound 19b]
[1]
  % Inhibition at 10 µM: -2%
Rat PO PK study; brain, 2 h, read-out: total brain concentration
  concentration at 2 h: 2680 nM
Rat PO PK study; brain, 24 h, read-out: total brain concentration
  concentration at 24 h: 2890 nM
Rat PO PK study; plasma
  Cmax: 10300 nM
  Tmax: 7 h
  half-life: > 24 h
